Data reported in patent EP0109623A1, “Phenyl-propanol amines, their preparation and use” (BASF Aktiengesellschaft, priority 1982, dated 1984).
Structures can show the parent of a compound that is named as a salt. Where two headings read alike, the source gives them in different places.

How the values were obtained:
Serotonin-Aufnahme = target: T1, Serotonin-Aufnahme (Rattus norvegicus, UniProt P31652); test: Inhibition of 3H-serotonin uptake in rat brain synaptosomes (cortex); assay type: biochemical, Ratte
T1 construct: Durch differentielle Zentrifugation wurden Synaptosomen erhalten; from tissue; host or cells: rat brain cortex synaptosomes
T1 sequence (P31652 whole entry): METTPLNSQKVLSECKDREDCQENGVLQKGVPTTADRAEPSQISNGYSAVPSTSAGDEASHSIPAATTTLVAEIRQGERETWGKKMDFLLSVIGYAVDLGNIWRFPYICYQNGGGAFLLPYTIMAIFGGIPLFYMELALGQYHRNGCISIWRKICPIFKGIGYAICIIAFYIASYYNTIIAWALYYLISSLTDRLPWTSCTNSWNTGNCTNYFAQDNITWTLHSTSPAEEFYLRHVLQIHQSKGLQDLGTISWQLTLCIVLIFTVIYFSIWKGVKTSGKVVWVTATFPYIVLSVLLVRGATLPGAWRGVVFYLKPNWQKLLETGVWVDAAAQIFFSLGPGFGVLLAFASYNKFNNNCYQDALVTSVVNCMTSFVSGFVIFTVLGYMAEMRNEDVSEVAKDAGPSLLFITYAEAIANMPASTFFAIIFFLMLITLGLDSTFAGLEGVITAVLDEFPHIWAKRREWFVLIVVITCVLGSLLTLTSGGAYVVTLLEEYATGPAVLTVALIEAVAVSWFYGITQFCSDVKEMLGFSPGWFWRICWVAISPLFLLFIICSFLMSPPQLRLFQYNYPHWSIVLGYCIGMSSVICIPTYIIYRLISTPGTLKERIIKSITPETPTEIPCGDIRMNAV
Text: (§1) Als Wirkungsmechanismus einer Gruppe therapeutisch vielfach genutzter Antidepressiva (z.B. tricyclische Antidepressiva) ist eine Hemmung der neuronalen Aufnahme von Transmittersubstanzen (Noradrenalin und/oder Serotonin) anzusehen. Diese Eigenschaft wird in biologischen Testmodellen zur Charakterisierung von potentiellen Antidepressiva verwendet. Es wurde folgende Methodik eingesetzt: • Hemmung der Neurotransmitter-Aufnahme in Rattenhirn-Synaptosomen
(§2) Hippocampus und Cortex aus Rattenhirn wurden präpariert und in 0,32 M Sucrose-Lösung homogenisiert. Durch differentielle Zentrifugation wurden Synaptosomen erhalten, die in Pufferlösung suspendiert wurden. Die Synaptosomen sind in der Lage, aus dem umgebenden Medium zugefügte Neurotransmittersubstanzen (z.B. Noradrenalin oder Serotonin) aktiv aufzunehmen. Dieser Vorgang ist durch Aufnahme-Hemmer konzentrationsabhängig antagonisierbar. Die Synaptosomen wurden mit den Testsubstanzen in verschiedenen Konzentrationen versetzt und anschließend mit ^3H-Noradrenalin (Hippocampus) bzw. ^3H-Serotonin (Cortex) bei 37°C inkubiert. Die Substratkonzentration betrug ca. 10 nM. Nach Stoppen der Aufnahme durch Verdünnen mit eisgekühlter Pufferlösung wurden die Synaptosomen i abzentrifugiert und die ^3H-Aktivität im Sediment gemessen. Der Blindwert wird durch Inkubation bei 0°C ermittelt.
(§3) Aus den bei verschiedenen Inhibitor-Konzentrationen gegen Kontrolle ermittelten Hemmwerten wurde durch lineare Regression nach logit-log-Transformation die mittlere Hemmkonzentration (ICso) berechnet.

Noradrenalin-Aufnahme = Noradrenalin-Aufnahme (Rattus norvegicus, UniProt Q9WTR4); test: Inhibition of 3H-noradrenaline uptake in rat brain synaptosomes (hippocampus); assay type: biochemical, Ratte; settings: for IC50: rat hippocampus synaptosomes, 3H-Noradrenalin ca. 10 nM, 37°C, read-out: Hemmung der Neurotransmitter-Aufnahme in Synaptosomen Noradrenalin IC50; for absolute Wirkstärke bei der Hemmung der Noradrenalin-Aufnahme: potency relative to Imipramin
Sequence of Noradrenalin-Aufnahme (Q9WTR4 1-597): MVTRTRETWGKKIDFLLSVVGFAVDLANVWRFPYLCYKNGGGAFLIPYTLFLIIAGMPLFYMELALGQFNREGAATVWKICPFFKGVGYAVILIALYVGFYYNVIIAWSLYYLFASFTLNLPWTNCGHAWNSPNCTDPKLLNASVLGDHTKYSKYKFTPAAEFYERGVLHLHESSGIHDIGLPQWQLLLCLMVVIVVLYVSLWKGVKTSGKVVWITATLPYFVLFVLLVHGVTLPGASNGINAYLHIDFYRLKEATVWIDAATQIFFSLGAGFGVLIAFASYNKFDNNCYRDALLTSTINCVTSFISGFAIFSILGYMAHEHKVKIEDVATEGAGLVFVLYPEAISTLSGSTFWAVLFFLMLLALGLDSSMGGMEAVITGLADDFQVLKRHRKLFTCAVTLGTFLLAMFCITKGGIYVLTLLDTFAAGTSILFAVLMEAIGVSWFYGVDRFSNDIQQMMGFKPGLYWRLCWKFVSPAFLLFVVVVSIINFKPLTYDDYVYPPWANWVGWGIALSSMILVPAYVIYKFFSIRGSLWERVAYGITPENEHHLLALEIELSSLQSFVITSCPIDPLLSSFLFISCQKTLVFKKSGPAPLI
Text: as §1, §2, §3

[1] = rat cortex synaptosomes, 3H-Serotonin ca. 10 nM, 37°C, read-out: Hemmung der Neurotransmitter-Aufnahme in Synaptosomen Serotonin IC50

CCCCCCCCC(O)(c1ccccc1)C(COc1ccccc1)CN(C)C (stereo not drawn) [Beispiel 2.10, 1-Dimethylamino-2-phenoxymethyl-3-phenyl-undecanol-(3)] was tested. Which IC50 (Serotonin-Aufnahme; [1]) did it give?
The IC50 was 0.049 µM.

And the IC50 (Noradrenalin-Aufnahme)?
The IC50 was 0.038 µM.

CN(C)CC(COc1ccccc1)C(O)(c1ccccc1)c1ccccc1 (stereo not drawn) [Beispiel 2.2, 1-Dimethylamino-3,3-diphenyl-2-phenoxymethyl-propanol-(3)] was tested. Which IC50 (Serotonin-Aufnahme; [1]) did it give?
Its IC50 is 0.2 µM.

What about the IC50 (Noradrenalin-Aufnahme) of the same molecule?
Its IC50 is 0.094 µM.

Which IC50 (Serotonin-Aufnahme) does the source give for CC(=O)OC(c1ccccc1)C(COc1ccccc1)CN(C)C.Cl (stereo not drawn) [Beispiel 5, 3-Acetoxy-1-dimethylamino-2-phenoxymethyl-3-phenylpropan Hydrochlorid] here?
The IC50 was 0.4 µM.

What about the “absolute Wirkstärke bei der Hemmung der Noradrenalin-Aufnahme” value (Noradrenalin-Aufnahme) of the same molecule?
Its value is 8 -fach.

And the IC50 (Noradrenalin-Aufnahme)?
The IC50 was 0.0017 µM.

COc1ccc(OCC2CN(C)CCC2c2ccccc2)cc1 (stereo not drawn) [Femoxetin, reference compound] was tested. Which IC50 (Noradrenalin-Aufnahme) did it give?
Its IC50 is 0.33 µM.

With CCOC(=O)OC(c1ccccc1)C(COc1ccccc1)CN(C)C (stereo not drawn) [Beispiel 5.3, 1-Dimethylamino-3-ethoxycarbonyloxy-2-phenoxymethyl-3-phenyl-propan Hydrochlorid] as the molecule, how does the IC50 (Serotonin-Aufnahme) read?
Its IC50 is 0.3 µM.

And the IC50 (Noradrenalin-Aufnahme)?
The IC50 was 0.02 µM.

What does the source list for CCC(O)(c1ccccc1)C(COc1ccccc1)CN(C)C (stereo not drawn) [Beispiel 2, 1-Dimethylamino-3-phenyl-2-phenoxymethyl-pentanol-(3) Hydrochlorid]?
IC50 (Serotonin-Aufnahme; [1]): 0.025 µM; IC50 (Noradrenalin-Aufnahme): 0.011 µM

Which IC50 (Serotonin-Aufnahme; [1]) does the source give for CN(C)CC(COc1ccc(Cl)cc1)C(O)(c1ccccc1)c1ccccc1 (stereo not drawn) [Beispiel 2.3, 2-(4-Chlorphenoxymethyl)1-dimethylamino-3,3-diphenyl-propanol-(3)] here?
Its IC50 is 0.026 µM.

And the IC50 (Noradrenalin-Aufnahme)?
Its IC50 is 0.094 µM.

Which results are given for CN(C)CC(COc1ccccc1)C(C)(O)c1ccccc1 (stereo not drawn) [Beispiel 2.4, 1-Dimethylamino-2-phenoxymethyl-3-phenyl-butanol-(3) Hydrochlorid]?
IC50 (Serotonin-Aufnahme; [1]): 0.066 µM; IC50 (Noradrenalin-Aufnahme): 0.036 µM

How did the IC50 (Serotonin-Aufnahme; [1]) turn out when CN(C)CC(COc1ccccc1)C(O)c1ccc(F)cc1 (stereo not drawn) [Beispiel 1.3, 1-Dimethylamino-3-(4-fluorphenyl)-2-phenoxymethyl-propanol-(3) Hydrochlorid] was run?
Its IC50 is 0.49 µM.

What does the source list for C=CC(O)(c1ccccc1)C(COc1ccccc1)CN(C)C (stereo not drawn) [Beispiel 2.12, l-Dimethylamino-2-phenoxymethyl-3-phenyl-pent-4-enol-(3) Hydrochlorid]?
IC50 (Serotonin-Aufnahme; [1]): 0.069 µM; IC50 (Noradrenalin-Aufnahme): 0.1 µM

With CCCC(O)(c1ccccc1)C(COc1ccccc1)CN(C)C (stereo not drawn) [Beispiel 2.5, 1-Dimethylamino-2-phenoxymethyl-3-phenyl-hexanol-(3) Hydrochlorid] as the molecule, how does the IC50 (Serotonin-Aufnahme; [1]) read?
The IC50 was 0.037 µM.

And the IC50 (Noradrenalin-Aufnahme)?
The IC50 was 0.013 µM.

With CCCC(O)(c1ccccc1)C(COc1ccc(Cl)cc1)CN(C)C (stereo not drawn) [Beispiel 2.6, 2-(4-Chlorphenoxymethyl)-1-dimethylamino-3-phenyl-hexanol-(3) Hydrochlorid] as the molecule, how does the IC50 (Serotonin-Aufnahme; [1]) read?
The IC50 was 0.0036 µM.

And the IC50 (Noradrenalin-Aufnahme)?
Its IC50 is 0.2 µM.

What does the source list for CN(C)CC(CSc1ccccc1)C(O)c1ccccc1 (stereo not drawn) [Beispiel 1.6, 1-Dimethylamino-3-phenyl-2-thiophenoxymethyl-propanol-(3)]?
IC50 (Serotonin-Aufnahme; [1]): 0.065 µM; absolute Wirkstärke bei der Hemmung der Noradrenalin-Aufnahme (Noradrenalin-Aufnahme): 8 -fach; IC50 (Noradrenalin-Aufnahme): 0.0017 µM

CN(C)CC(COc1ccc(Cl)cc1)C(O)c1ccccc1 (stereo not drawn) [Beispiel 1.2, 2-(4-Chlorphenoxymethyl)-1-dimethylamino-3-phenyl-propanol-(3)] was tested. Which IC50 (Serotonin-Aufnahme; [1]) did it give?
Its IC50 is 0.02 µM.

What about the IC50 (Noradrenalin-Aufnahme) of the same molecule?
The IC50 was 0.18 µM.

C=CCOC(c1ccccc1)C(COc1ccccc1)CN(C)C (stereo not drawn) [Beispiel 6, 3-Allyloxy-1-dimethylamino--2-phenoxymethyl-3-phenyl-propan] was tested. Which IC50 (Serotonin-Aufnahme) did it give?
The IC50 was 0.056 µM.

What about the IC50 (Noradrenalin-Aufnahme) of the same molecule?
Its IC50 is 0.017 µM.

Which results are given for CCCCCCCCCCCCC(O)(c1ccccc1)C(COc1ccccc1)CN(C)C (stereo not drawn) [Beispiel 2.11, 1-Dimethylamino-2-phenoxymethyl-3-phenyl-pentadecanol-(3)]?
IC50 (Serotonin-Aufnahme; [1]): 0.3 µM; IC50 (Noradrenalin-Aufnahme): 0.5 µM

How did the IC50 (Serotonin-Aufnahme; [1]) turn out when CCC(O)(c1ccccc1)C(COc1ccc(Cl)cc1)CN(C)C (stereo not drawn) [Beispiel 2.7, 2-(4-Chlorphenoxymethyl)-1-dimethylamino-3-phenyl-pentanol-(3) Hydrochlorid] was run?
The IC50 was 0.0031 µM.

And the IC50 (Noradrenalin-Aufnahme)?
Its IC50 is 0.15 µM.

CN(C)CC(COc1ccccc1)C(O)c1ccccc1 (stereo not drawn) [Beispiel 1, 1-Dimethylamino-2-phenoxymethyl-3-phenyl-propanol-(3)] was tested. Which IC50 (Serotonin-Aufnahme; [1]) did it give?
The IC50 was 0.19 µM.

What about the IC50 (Noradrenalin-Aufnahme) of the same molecule?
The IC50 was 0.0052 µM.

How did the IC50 (Serotonin-Aufnahme; [1]) turn out when CN(C)CC(COc1ccc(Br)cc1)C(O)c1ccccc1 (stereo not drawn) [Beispiel 1.4, 2-(4-Bromphenoxymethyl)-1-dimethylamino-3-phenylpropanol-(3) Hydrochlorid] was run?
The IC50 was 0.073 µM.

And the IC50 (Noradrenalin-Aufnahme)?
The IC50 was 0.017 µM.

For CN(C)CC(COc1ccc(Cl)cc1)C(C)(O)c1ccccc1 (stereo not drawn) [Beispiel 2.8, 2-(4-Chlorphenoxymethyl)-1-dimethylamino-3-phenyl-butanol-(3) Hydrochlorid], which IC50 (Serotonin-Aufnahme; [1]) is on record?
The IC50 was 0.0038 µM.

What about the IC50 (Noradrenalin-Aufnahme) of the same molecule?
The IC50 was 0.16 µM.

For CCC(O)(c1ccccc1)C(COc1ccc(Cl)cc1)CN(C)C (stereo not drawn) [Beispiel 2.9, 2-(4-Chlorphenoxymethyl)-1-dimethylamino-3-phenyl-pentanol-(3) Hydrochlorid], which IC50 (Serotonin-Aufnahme; [1]) is on record?
The IC50 was 0.1 µM.

What about the IC50 (Noradrenalin-Aufnahme) of the same molecule?
The IC50 was 0.068 µM.
